Assay results published in patent US20240299400A1, “Transcription Factor GLI1 Inhibitors and Uses Thereof” (University of Connecticut, priority 2023, published 2024).

Key:
[1] = system: GLI1 mRNA expression; assay: RT-qPCR GLI1 mRNA expression in Sufu-KO MEFs; type: cell-based, mouse; conditions: for IC50: Mus musculus, Ave ± SEM, read-out: RT-qPCR, IC50 Sufu-KO
Protocol: (§1) ASZ001 and Sufu-KO cells were seeded in 96-well plates (10,000/well, 100 μL) and incubated overnight under growth conditions. On the second day, ‘growth’ media was removed and replaced by ‘assay’ media (100 μL). On the third day, cells were treated with a serial dilution of drugs or DMSO for 48 h. mRNA expression was determined through Taqman Fast Cells-to-CT Kit (#4399003) per the manufacturer's instructions. In brief, cells were washed with chilled PBS, then mixed with lysis solution containing DNase I and incubated at RT for 5 min. Stop solution was then added to quench the lysis reagents. cDNA was then synthesized through a BioRad MyCycler following addition of reverse transcriptase. Finally, the cDNA was amplified through an ABI 7500 system following addition of Taqman Fast Universal PCR Master Mix and Taqman Gene Expression Primer. Relative gene expression levels were computed by the ΔΔCt method. Values represent mRNA expression relative to DMSO control (set at 1.0). Data were analyzed using GraphPad Prism, and IC50 values are the mean±SEM for at least two separate experiments performed in triplicate. Primers used are as follows: mouse ActB (Mm00607939_s1); mouse GLI1 (Mm00494645_ml); mouse Gli2 (Mm01293117_ml); mouse Ptch1 (Mm00436026_ml); mouse Hhip (Mm00469580_ml).

[2] = system: GLI1 mRNA expression; assay: RT-qPCR GLI1 mRNA expression in ASZ001 BCC cells; type: cell-based, mouse; conditions: Mus musculus, Ave ± SEM, read-out: RT-qPCR, IC50 ASZ001
Protocol: as §1

[3] = system: ASZ001 cells; assay: MTS anti-proliferative assay in ASZ001 cells; type: cell-based, murine; conditions: Mus musculus, ASZ001, Ave ± SEM
Protocol: (§2) Cell viability was assessed by MTS proliferation assay kit (Promega) per manufacturer's protocol. Briefly, 2×10^4 cells were plated in a 96-well plate in 100 μL growth medium to make the cell population at ˜80% confluence. After 24 h, 1 μL drug solution was added to each well. DMSO was used as vehicle compound. After 48 h incubation (37° C., 5% CO2), 20 μL of freshly prepared 3-(4,5-dimethylthiazol-2-yl)-5-(3-carboxymethoxyphenyl)-2-(4-sulfophenyl)-2H-tetrazolium (MTS)/phenazine methosulfate (PMS) solution was added to each well, and the plate was returned to the incubator for 1 h. Absorbance at 490 nm was recorded, and the result was analyzed by GraphPad Prism 5. GI50 values represent mean±SEM for at least two separate experiments performed in triplicate.

[4] = system: DAOY (MB); assay: MTS anti-proliferative assay in DAOY cells; type: cell-based; conditions: Homo sapiens, Daoy; Table 8, 48 h, mean ± SEM
Protocol: as §2

[5] = system: PANC-1 (pancreatic); assay: MTS anti-proliferative assay in PANC-1 cells; type: cell-based; conditions: Homo sapiens, PANC-1; Table 8, 48 h, mean ± SEM
Protocol: as §2

[6] = molecular target: T1, GLI1-ZFD (Homo sapiens, UniProt P08151); assay: Microscale thermophoresis (MST) binding to GLI1-ZFD; conditions: for binding to GLI1 (in words): MST binding assay
T1 construct: GLI1-ZFD Expression and Purification; made in house
T1 sequence (P08151 234-388 limits assumed): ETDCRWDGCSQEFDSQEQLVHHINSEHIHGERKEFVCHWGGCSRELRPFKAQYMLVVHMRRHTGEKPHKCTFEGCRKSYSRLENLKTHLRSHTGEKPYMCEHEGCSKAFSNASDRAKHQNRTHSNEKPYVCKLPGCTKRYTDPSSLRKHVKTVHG
Protocol: The protein expression and purification experiments followed the previous reported procedures [C. A. Maschinot, et al., Synthesis and evaluation of third generation vitamin D3 analogues as inhibitors of hedgehog signaling. Euro. J. Med. Chem. 162 (2019) 495-506].
GLI1 protein labeling was performed through the Monolith Protein Labeling Kit RED-NHS 2nd Generation (Nanotemper #MO-LO11) per the manufacturer's instructions. Briefly, GLI1 (100 μg, 1 mg/mL) underwent buffer exchange to remove incompatible ingredients like Tris or DTT. Proteins in the Labeling Buffer were incubated with freshly prepared dye (˜3-fold excess of dye) for 30 min at RT in the dark. Unreacted ‘free’ dye was removed by a gel-filtration column. Protein concentration and degree-of-labeling were calculated by measuring absorption at 280 nm and 650 nm. For each assay, 200 nM GLI1 in MST Buffer was mixed with compound dilution in DMSO (DMSO<5%, v/v). The mixture was then loaded to a capillary and the thermophoresis was subsequently determined through Monolith NT.115 station. Results were analyzed by MO.Affinity Analysis software and visualized by Graphpad Prism. MST Buffer: 50 mM HEPES, pH 8.3, 100 mM NaCl.

Structure (SMILES) | IC50 ([1]; Table 7, GLI1 mRNA) [µM] | IC50 ([2]; ASZ001, Table 7, GLI1 mRNA) [µM] | GI50 ([3]; Table 7, 48 h) [µM] | other results
CCN(CC)c1ccc(C(Nc2ccccn2)c2ccc3cccnc3c2O)cc1 (stereo not shown) [Compound 15, 7-((4-Diethylaminophenyl)(pyridin-2-ylamino)methyl)quinolin-8-ol] | – | – | – | IC50 ([1]; Table 5, GLI1 mRNA): 1.1 ± 0.3 µM; IC50 ([2]; ASZ001, Table 5, GLI1 mRNA): 1.4 ± 0.4 µM; GI50 ([3]; Table 5, 48 h): 12.2 ± 2 µM; GI50 [4]: 8.2 ± 1.6 µM; GI50 [5]: 10 ± 1.1 µM
CCN(CC)c1ccc(C(Nc2ccccn2)c2ccccc2O)cc1 (stereo not shown) [Compound 18, 2-((4-Diethylaminophenyl)(pyridin-2-ylamino)methyl)phenol] | – | – | – | IC50 ([1]; Table 5, GLI1 mRNA): > 25 µM; IC50 ([2]; ASZ001, Table 5, GLI1 mRNA): 15.2 ± 5 µM; Kd ([6]; Table 5, Ave ± SEM): > 125 µM; GI50 ([3]; Table 5, 48 h): > 100 µM; GI50 [5]: > 100 µM
CCN(CC)c1ccc(C(Nc2ccccn2)c2ccc3ccc(C)nc3c2OC2CCCC2)cc1 (stereo not shown) [Compound 22, N-((4-Diethylaminophenyl)(8-cyclopentyloxy-2-methylquinolin-7-yl)methyl)pyridin-2-amine] | – | – | – | anti-GLI1 activity in Sufu-KO cells (in words) [1]: inactive; IC50 ([1]; Table 5, GLI1 mRNA): > 25 µM; IC50 ([2]; ASZ001, Table 5, GLI1 mRNA): 0.54 µM; binding to GLI1 (in words) [6]: did not bind to GLI1; GI50 ([3]; Table 5, 48 h): > 100 µM
CCN(CC)c1ccc(C(NC)c2cc(C)c3ccc(C)nc3c2O)cc1 (stereo not shown) [Compound 29, 7-((4-(Diethylamino)phenyl)(methylamino)methyl)-2,5-dimethylquinolin-8-ol] | – | – | – | IC50 ([1]; Table 6, GLI1 mRNA): > 25 µM; IC50 ([2]; ASZ001, Table 6, GLI1 mRNA): 15.4 ± 2.2 µM; GI50 ([3]; Table 6, 48 h): > 100 µM
CCN(CC)c1ccc(C(Nc2cccnc2)c2ccc3ccc(C)nc3c2O)cc1 (stereo not shown) [Compound 30, 7-((4-(diethylamino)phenyl)(pyridin-3-ylamino)methyl)-2-methylquinolin-8-ol] | – | – | – | IC50 ([1]; Table 6, GLI1 mRNA): 4.4 ± 1.9 µM; IC50 ([2]; ASZ001, Table 6, GLI1 mRNA): 2.5 ± 0.8 µM; GI50 ([3]; Table 6, 48 h): 81.4 ± 10.7 µM
CCN(CC)c1ccc(C(Nc2ccncc2)c2ccc3ccc(C)nc3c2O)cc1 (stereo not shown) [Compound 31, 7-((4-(diethylamino)phenyl)(pyridin-4-ylamino)methyl)-2-methylquinolin-8-ol] | – | – | – | IC50 ([1]; Table 6, GLI1 mRNA): > 25 µM; IC50 ([2]; ASZ001, Table 6, GLI1 mRNA): 21.4 ± 6.7 µM; GI50 ([3]; Table 6, 48 h): > 100 µM
Cc1ccc2c(C)cc(C(C)Nc3ccccn3)c(O)c2n1 (stereo not shown) [Compound 32, 2,5-Dimethyl-7-(1-(pyridin-2-ylamino)ethyl)quinolin-8-ol] | 4.8 ± 1.4 | 5.3 ± 1.7 | 29.8 ± 4 | –
Cc1ccc2c(C)cc(C(C)Nc3ccccc3)c(O)c2n1 (stereo not shown) [Compound 33, 2,5-Dimethyl-7-(1-(phenylamino)ethyl)quinolin-8-ol] | 8.8 ± 2.7 | 7.1 ± 2 | 29.5 ± 5.1 | GI50 [5]: 56.3 ± 9.4 µM
CCN(CC)c1ccccc1C(Nc1ccccn1)c1ccc2ccc(C)nc2c1O (stereo not shown) [Compound 35, 7-((2-Diethylaminophenyl)(pyridin-2-ylamino)methyl)-2-methylquinolin-8-ol] | 9 ± 2.2 | 15.8 ± 6.3 | 29.3 ± 4.9 | binding to GLI1 (in words) [6]: do not bind GLI1; Kd ([6]; Table 7, Ave ± SEM): > 125 µM
CCN(CC)c1cccc(C(Nc2ccccn2)c2ccc3ccc(C)nc3c2O)c1 (stereo not shown) [Compound 36, 7-((3-Diethylaminophenyl)(pyridin-2-ylamino)methyl)-2-methylquinolin-8-ol] | 5.6 ± 1.5 | 15.1 ± 4.1 | 82.5 ± 20.3 | –
Cc1ccc2ccc(C(Nc3ccccn3)c3cccc(F)c3)c(O)c2n1 (stereo not shown) [Compound 37, 7-((3-Fluorophenyl)(pyridin-2-ylamino)methyl)-2-methylquinolin-8-ol] | 5.3 ± 1.3 | 19.2 ± 5.5 | 33.1 ± 9.1 | –
CCNc1cccc(C(Nc2ccccn2)c2ccc3ccc(C)nc3c2O)c1 (stereo not shown) [Compound 38, 7-((3-Ethylaminophenyl)(pyridin-2-ylamino)methyl)-2-methylquinolin-8-ol] | 10.6 ± 2.6 | 19.3 ± 5 | > 100 | –
Cc1ccc2ccc(C(Nc3ccccn3)c3ccc([N+](=O)[O-])cc3)c(O)c2n1 (stereo not shown) [Compound 40, 7-((4-Nitrophenyl)(pyridin-2-ylamino)methyl)-2-methylquinolin-8-ol] | 5.6 ± 0.9 | 17.3 ± 6.1 | 61.8 ± 27.5 | GI50 [4]: 75.2 ± 17.4 µM; GI50 [5]: > 100 µM
Cc1ccc2ccc(C(Nc3ccccn3)c3ccc(N)cc3)c(O)c2n1 (stereo not shown) [Compound 41, 7-((4-Aminophenyl)(pyridin-2-ylamino)methyl)-2-methylquinolin-8-ol] | 3.5 ± 1 | 9.8 ± 1.3 | > 100 | –
Cc1ccc2ccc(C(Nc3ccccn3)c3ccc(N4CCc5ccccc54)cc3)c(O)c2n1 (stereo not shown) [Compound 46, 7-((4-(Indolin-1-yl)phenyl)(pyridin-2-ylamino)methyl)-2-methylquinolin-8-ol] | 4.3 ± 0.8 | 15.4 ± 4.7 | 67.9 ± 12.8 | –
Cc1ccc2ccc(C(Nc3ccccn3)c3ccc(-n4ccc5ccccc54)cc3)c(O)c2n1 (stereo not shown) [Compound 47, 7-((4-(1H-indol-1-yl)phenyl)(pyridin-2-ylamino)methyl)-2-methylquinolin-8-ol] | 1.7 ± 0.3 | 10.5 ± 3.2 | 62.3 ± 13.5 | –
Cc1ccc2ccc(C(Nc3ccccn3)c3ccc(-n4cccc4)cc3)c(O)c2n1 (stereo not shown) [Compound 49, 7-((4-(1H-Pyrrol-1-yl)phenyl)(pyridin-2-ylamino)methyl)-2-methylquinolin-8-ol] | 1.1 ± 0.4 | 14.2 ± 2.4 | 91.7 ± 21 | Kd ([6]; Table 7, Ave ± SEM): 28.5 ± 7.2 µM; GI50 [5]: > 100 µM
Cc1ccc2ccc(C(Nc3ccccn3)c3ccc(-n4ccnc4)cc3)c(O)c2n1 (stereo not shown) [Compound 50, 7-((4-(1H-Imidazol-1-yl)phenyl)(pyridin-2-ylamino)methyl)-2-methylquinolin-8-ol] | 3.8 ± 0.7 | > 25 | > 100 | Kd ([6]; Table 7, Ave ± SEM): 18.8 ± 5.2 µM
Cc1ccc2ccc(C(Nc3ccccn3)c3ccc(-n4ccnc4C)cc3)c(O)c2n1 (stereo not shown) [Compound 51, 7-((4-(2-Methyl-1H-imidazol-1-yl)phenyl)(pyridin-2-ylamino)methyl)-2-methylquinolin-8-ol] | 13.6 ± 3.5 | 5.3 ± 1.2 | > 100 | –
Cc1ccc2ccc(C(Nc3ccccn3)c3ccc(-n4cccn4)cc3)c(O)c2n1 (stereo not shown) [Compound 52, 7-((4-(1H-Pyrazol-1-yl)phenyl)(pyridin-2-ylamino)methyl)-2-methylquinolin-8-ol] | 1.5 ± 0.3 | 2.7 ± 0.9 | 37.2 ± 4.8 | Kd ([6]; Table 7, Ave ± SEM): 10.5 ± 4.4 µM
COc1c(C(Nc2ccccn2)c2ccc(N3CCCC3=O)cc2)ccc2ccc(C)nc12 (stereo not shown) [Compound 53, 1-(4-((8-Methoxy-2-methylquinolin-7-yl)(pyridin-2-ylamino)methyl)phenyl)pyrrolidin-2-one] | > 25 | 0.77 ± 0.03 | 42.9 ± 12.2 | –
CS(=O)(=O)c1ccc(C(=O)Nc2ccc(Cl)c(-c3ccccn3)c2)c(Cl)c1 [GDC-0449, reference compound] | – | – | – | IC50 ([1]; Table 5, GLI1 mRNA): > 25 µM; IC50 ([2]; ASZ001, Table 5, GLI1 mRNA): 0.04 ± 0.01 µM; GI50 ([3]; Table 5, 48 h): 73.6 ± 13.7 µM; GI50 [5]: 80.7 ± 14.2 µM
